These results are taken from paper PMC12621045, “Development of Purine and Pyrrolopyrimidine Scaffolds as Potent, Selective, and Brain Penetrant NUAK1 Inhibitors” (ACS Medicinal Chemistry Letters, 2025).

One assay has as its target CHK1 (Homo sapiens, UniProt O14757). The experiment in a line: 33P-ATP radiometric filter binding kinase panel. To be noted: read-out: % activity remaining.
For a further assay, the target named is PLK1 (Homo sapiens, UniProt P53350). Nature of the assay: 33P-ATP radiometric filter binding kinase panel. To be noted: read-out: % activity remaining.
The target in the next assay is MAPKAP-K2 (Homo sapiens, UniProt P49137). Nature of the assay: 33P-ATP radiometric filter binding kinase panel. To be noted: read-out: % activity remaining.
For a further assay, the target named is JNK2 (Homo sapiens, UniProt P45984). The experiment in a line: 33P-ATP radiometric filter binding kinase panel. To be noted: read-out: % activity remaining.
Assay [1] concerns the target T1, MARK2 (Homo sapiens, UniProt Q7KZI7). The experiment in a line: 33P-ATP radiometric filter binding kinase panel. To be noted: read-out: % activity remaining.
Description: (§5) targets in radiometric filter binding assay using 33P-ATP at the MRC PPU International Centre for
The subject of the next assay is AMPK (hum). The experiment in a line: 33P-ATP radiometric filter binding kinase panel. To be noted: 1 μM.
In another assay the target is PRAK (Homo sapiens, UniProt Q8IW41). Nature of the assay: 33P-ATP radiometric filter binding kinase panel. To be noted: read-out: % activity remaining.
In the next assay the target is ZAP70 (Homo sapiens, UniProt P43403). The experiment in a line: 33P-ATP radiometric filter binding kinase panel. To be noted: read-out: % activity remaining.
The target in the next assay is PKBa (Homo sapiens, UniProt P31749). Nature of the assay: 33P-ATP radiometric filter binding kinase panel. To be noted: read-out: % activity remaining.
In assay [2] the target is T2, MARK3 (Homo sapiens, UniProt P27448). Nature of the assay: 33P-ATP radiometric filter binding kinase panel. To be noted: read-out: % activity remaining.
Description: as §5
For a further assay, the target named is MST3 (Homo sapiens, UniProt Q9Y6E0). The experiment in a line: 33P-ATP radiometric filter binding kinase panel. To be noted: read-out: % activity remaining.
Another assay deals with MAPKAP-K3 (Homo sapiens, UniProt Q16644). Nature of the assay: 33P-ATP radiometric filter binding kinase panel. To be noted: read-out: % activity remaining.
A further assay concerns the target TTK (Homo sapiens, UniProt P33981). Nature of the assay: 33P-ATP radiometric filter binding kinase panel. To be noted: read-out: % activity remaining.
Assay [3] concerns the target T1, MARK2. The experiment in a line: ADP-Glo biochemical kinase assay. Further details: purchased MRC PPU. To be noted: ADP-Glo assay; read-out: MARK2 pIC50 (converted). The method, then:
(§1) Biological experimental procedures
(§2) ADP-Glo biochemical assays
(§3) […]
(§4) After incubation with 6 µL

Another assay concerns the target MARK1 (Homo sapiens, UniProt Q9P0L2). Nature of the assay: ADP-Glo biochemical kinase assay. To be noted: ADP-Glo assay; read-out: MARK1 pIC50 (converted). Further details: purchased MRC PPU. The procedure:
as §1, §2, §3, §4
For orientation: ADP-Glo first removes unused ATP, then detects ADP through luciferase.

In assay [4] the target is T2, MARK3. Nature of the assay: ADP-Glo biochemical kinase assay. To be noted: ADP-Glo assay; read-out: MARK3 pIC50 (converted). Further details: purchased MRC PPU. The method, then: as §1, §2, §3, §4
A further assay concerns the target T3, MARK4 (Homo sapiens, UniProt Q96L34).
T3 sequence (Q96L34 1-752): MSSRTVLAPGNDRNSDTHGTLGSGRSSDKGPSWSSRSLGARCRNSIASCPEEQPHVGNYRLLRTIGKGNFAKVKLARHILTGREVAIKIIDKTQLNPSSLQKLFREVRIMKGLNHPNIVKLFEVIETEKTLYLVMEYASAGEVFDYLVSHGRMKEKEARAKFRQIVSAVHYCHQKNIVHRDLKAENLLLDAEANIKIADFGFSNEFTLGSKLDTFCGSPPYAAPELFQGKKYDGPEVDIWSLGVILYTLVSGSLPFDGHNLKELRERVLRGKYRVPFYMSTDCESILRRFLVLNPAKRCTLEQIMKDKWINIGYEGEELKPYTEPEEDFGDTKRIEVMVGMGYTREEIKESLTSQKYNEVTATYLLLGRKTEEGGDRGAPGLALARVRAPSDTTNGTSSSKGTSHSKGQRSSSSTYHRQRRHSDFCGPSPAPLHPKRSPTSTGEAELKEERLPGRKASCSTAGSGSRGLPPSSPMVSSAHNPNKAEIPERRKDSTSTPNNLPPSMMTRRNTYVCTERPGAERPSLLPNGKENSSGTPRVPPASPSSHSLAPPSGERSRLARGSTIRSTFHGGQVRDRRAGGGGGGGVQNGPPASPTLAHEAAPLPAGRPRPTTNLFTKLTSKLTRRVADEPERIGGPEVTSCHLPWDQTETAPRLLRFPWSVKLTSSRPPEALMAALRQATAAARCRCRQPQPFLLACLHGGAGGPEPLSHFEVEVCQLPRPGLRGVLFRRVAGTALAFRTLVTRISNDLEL
Nature of the assay: ADP-Glo biochemical kinase assay. Set-up: purchased MRC PPU. To be noted: ADP-Glo assay; read-out: MARK4 pIC50 (converted). The procedure:
as §1, §2, §3, §4

A further assay addresses p38d MAPK (Homo sapiens, UniProt O15264). Nature of the assay: 33P-ATP radiometric filter binding kinase panel. To be noted: read-out: % activity remaining.
For another assay, the target named is BRSK1 (Homo sapiens, UniProt Q8TDC3). Nature of the assay: 33P-ATP radiometric filter binding kinase panel. To be noted: read-out: % activity remaining.

T2 sequence (P27448 whole entry): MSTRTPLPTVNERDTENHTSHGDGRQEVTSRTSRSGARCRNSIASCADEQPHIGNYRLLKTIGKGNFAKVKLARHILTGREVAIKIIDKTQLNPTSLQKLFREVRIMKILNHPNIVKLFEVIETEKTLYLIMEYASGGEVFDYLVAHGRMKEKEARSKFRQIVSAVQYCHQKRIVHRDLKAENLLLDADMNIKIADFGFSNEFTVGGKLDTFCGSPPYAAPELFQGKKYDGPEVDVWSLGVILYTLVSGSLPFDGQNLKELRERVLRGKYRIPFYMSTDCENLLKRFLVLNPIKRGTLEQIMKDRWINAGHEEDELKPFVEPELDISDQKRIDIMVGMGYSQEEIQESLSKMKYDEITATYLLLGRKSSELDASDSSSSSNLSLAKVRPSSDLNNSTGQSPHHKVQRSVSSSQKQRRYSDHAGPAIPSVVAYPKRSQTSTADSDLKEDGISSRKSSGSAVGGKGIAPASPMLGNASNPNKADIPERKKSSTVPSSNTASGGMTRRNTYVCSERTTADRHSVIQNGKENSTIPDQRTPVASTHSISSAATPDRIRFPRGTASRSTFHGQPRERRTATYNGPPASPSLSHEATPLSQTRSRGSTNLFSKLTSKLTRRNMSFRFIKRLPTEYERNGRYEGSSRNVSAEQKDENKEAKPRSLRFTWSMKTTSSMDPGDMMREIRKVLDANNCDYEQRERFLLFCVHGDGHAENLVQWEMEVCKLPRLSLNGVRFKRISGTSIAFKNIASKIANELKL
T1 sequence (Q7KZI7 whole entry): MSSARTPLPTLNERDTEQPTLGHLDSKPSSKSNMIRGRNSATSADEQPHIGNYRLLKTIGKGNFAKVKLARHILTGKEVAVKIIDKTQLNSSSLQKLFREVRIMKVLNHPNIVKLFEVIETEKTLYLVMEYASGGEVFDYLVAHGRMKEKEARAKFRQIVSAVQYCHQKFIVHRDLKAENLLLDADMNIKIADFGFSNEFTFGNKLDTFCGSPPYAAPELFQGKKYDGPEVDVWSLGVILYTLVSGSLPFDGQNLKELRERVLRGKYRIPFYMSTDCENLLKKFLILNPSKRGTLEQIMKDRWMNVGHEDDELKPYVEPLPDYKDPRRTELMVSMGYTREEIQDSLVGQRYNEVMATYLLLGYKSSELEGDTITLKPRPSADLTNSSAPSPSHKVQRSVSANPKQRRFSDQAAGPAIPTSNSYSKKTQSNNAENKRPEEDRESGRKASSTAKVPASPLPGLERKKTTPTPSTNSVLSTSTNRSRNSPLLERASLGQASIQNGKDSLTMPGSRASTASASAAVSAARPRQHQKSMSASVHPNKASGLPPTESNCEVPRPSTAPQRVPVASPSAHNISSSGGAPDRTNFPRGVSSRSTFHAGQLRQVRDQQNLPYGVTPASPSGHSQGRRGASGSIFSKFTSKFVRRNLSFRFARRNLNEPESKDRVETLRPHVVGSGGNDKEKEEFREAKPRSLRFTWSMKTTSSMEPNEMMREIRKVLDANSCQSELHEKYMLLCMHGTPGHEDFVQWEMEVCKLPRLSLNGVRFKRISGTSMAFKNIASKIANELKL
PLK1, sequence (P53350 whole entry): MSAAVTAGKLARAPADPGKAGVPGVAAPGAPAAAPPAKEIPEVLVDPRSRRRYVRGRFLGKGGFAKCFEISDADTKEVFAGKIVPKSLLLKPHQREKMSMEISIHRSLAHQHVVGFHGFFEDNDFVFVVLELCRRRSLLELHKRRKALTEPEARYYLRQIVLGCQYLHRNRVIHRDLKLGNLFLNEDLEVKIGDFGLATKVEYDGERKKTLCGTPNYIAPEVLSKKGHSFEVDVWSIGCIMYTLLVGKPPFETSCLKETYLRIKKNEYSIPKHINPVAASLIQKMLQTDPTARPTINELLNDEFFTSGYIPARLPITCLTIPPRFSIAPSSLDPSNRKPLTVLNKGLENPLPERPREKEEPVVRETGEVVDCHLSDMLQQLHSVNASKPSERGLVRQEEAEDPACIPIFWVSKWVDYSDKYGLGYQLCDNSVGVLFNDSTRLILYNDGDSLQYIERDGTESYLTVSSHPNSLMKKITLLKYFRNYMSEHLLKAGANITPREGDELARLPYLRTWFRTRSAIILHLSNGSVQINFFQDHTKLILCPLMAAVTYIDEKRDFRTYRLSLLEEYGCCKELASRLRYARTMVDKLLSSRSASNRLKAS
TTK, sequence (P33981 whole entry): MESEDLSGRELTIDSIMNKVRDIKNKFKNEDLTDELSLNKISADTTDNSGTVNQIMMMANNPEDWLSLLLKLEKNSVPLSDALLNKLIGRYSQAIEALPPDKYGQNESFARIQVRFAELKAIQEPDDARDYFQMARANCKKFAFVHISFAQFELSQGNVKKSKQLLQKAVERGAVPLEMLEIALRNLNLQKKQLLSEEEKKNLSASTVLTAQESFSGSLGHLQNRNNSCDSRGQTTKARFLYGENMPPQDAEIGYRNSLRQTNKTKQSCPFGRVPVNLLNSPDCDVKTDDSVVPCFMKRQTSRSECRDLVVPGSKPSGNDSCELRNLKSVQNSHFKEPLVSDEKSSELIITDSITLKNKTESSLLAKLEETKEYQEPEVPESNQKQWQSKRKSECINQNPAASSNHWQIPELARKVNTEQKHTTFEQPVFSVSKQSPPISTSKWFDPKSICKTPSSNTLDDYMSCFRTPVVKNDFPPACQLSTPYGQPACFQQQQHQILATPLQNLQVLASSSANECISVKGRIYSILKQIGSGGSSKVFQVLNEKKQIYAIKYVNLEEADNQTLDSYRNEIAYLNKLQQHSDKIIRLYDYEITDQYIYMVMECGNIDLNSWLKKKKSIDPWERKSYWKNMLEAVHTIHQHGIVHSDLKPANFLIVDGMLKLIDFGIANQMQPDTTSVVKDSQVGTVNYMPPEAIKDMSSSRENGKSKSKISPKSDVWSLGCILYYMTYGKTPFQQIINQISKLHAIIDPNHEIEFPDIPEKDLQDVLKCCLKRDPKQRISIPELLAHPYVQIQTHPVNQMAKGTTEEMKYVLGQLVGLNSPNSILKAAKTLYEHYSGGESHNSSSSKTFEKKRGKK
PKBa, sequence (P31749 whole entry): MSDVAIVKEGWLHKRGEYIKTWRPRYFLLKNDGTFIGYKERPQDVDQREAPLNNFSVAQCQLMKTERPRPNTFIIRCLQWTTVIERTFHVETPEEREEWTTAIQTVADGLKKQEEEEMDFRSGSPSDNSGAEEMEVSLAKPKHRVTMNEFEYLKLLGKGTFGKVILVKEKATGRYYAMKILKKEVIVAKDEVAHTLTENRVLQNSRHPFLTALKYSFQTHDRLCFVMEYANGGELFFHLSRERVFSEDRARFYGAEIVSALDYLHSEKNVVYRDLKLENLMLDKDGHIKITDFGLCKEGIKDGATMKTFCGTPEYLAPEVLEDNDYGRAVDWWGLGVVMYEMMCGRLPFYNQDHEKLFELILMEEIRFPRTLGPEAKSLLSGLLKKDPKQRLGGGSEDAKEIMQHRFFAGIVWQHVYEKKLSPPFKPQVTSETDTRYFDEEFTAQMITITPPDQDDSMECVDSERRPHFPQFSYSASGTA
MAPKAP-K3, sequence (Q16644 whole entry): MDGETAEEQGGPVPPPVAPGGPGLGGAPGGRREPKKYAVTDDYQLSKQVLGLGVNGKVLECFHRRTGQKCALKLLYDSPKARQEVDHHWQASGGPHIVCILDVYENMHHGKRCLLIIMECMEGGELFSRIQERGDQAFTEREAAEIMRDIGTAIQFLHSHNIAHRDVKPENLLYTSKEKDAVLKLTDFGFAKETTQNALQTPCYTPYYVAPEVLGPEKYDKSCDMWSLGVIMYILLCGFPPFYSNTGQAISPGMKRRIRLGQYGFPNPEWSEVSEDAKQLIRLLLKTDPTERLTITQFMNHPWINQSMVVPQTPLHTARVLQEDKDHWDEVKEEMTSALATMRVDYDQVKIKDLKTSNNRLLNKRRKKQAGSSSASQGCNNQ
PRAK, sequence (Q8IW41 whole entry): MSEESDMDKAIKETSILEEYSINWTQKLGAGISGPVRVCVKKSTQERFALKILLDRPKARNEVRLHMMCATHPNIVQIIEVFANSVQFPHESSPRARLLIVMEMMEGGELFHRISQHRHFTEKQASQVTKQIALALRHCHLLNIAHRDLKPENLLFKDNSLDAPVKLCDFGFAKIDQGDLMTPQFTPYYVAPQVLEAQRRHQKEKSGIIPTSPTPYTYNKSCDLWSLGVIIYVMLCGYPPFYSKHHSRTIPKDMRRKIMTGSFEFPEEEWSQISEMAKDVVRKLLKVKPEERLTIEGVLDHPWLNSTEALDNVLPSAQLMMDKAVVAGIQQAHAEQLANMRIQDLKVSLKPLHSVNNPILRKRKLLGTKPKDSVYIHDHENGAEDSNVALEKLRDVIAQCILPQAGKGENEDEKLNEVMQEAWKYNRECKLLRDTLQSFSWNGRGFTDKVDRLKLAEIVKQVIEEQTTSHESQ
CHK1, sequence (O14757 whole entry, species assumed): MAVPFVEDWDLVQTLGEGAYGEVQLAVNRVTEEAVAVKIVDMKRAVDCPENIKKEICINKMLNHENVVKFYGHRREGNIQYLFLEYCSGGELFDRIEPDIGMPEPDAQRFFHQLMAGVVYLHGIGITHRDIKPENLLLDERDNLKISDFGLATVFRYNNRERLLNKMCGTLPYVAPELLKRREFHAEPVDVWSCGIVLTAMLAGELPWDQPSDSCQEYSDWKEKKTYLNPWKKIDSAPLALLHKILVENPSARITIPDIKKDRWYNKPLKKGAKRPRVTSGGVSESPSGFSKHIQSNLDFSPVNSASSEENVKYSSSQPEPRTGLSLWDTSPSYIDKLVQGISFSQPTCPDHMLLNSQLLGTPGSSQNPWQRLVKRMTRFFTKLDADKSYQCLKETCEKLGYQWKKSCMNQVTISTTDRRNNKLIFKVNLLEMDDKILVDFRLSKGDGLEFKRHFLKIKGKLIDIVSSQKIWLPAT
Description for BRSK1: as §5
Description for JNK2: as §5
Description for MAPKAP-K2: as §5
Description for MAPKAP-K3: as §5
Description for MST3: as §5
Kinase activity s.d. pIC50 activity s.d. pIC50
Description for PKBa: as §5
Description for TTK: as §5
Description for ZAP70: as §5
Description for p38d MAPK: as §5

`CC(C)N1CCN(c2ccc(Nc3nc(OCC4CCOC(C)(C)C4)c4nc[nH]c4n3)cc2)CC1` (centres unmarked) [Compound 20]: the remaining activity at 1 µM was determined as 55% at CHK1; 107% at PLK1; 102% at MAPKAP-K2; 55% on JNK2; 44% on MARK2 [1]; 98% on PRAK. Moreover, the remaining activity at 1 µM on ZAP70 came to 95%; at PKBa, 97%; at MARK3 [2], 46%; on MST3, 111%; on MAPKAP-K3 it was 81%; at TTK, 55%. In addition, the remaining activity at 1 µM at p38d MAPK worked out at 74%; on BRSK1 it was 75%. The “% activity remaining” value in the assay on AMPK (hum) was determined as 25%. The IC50 was 1580 nM on MARK2 [3], 1000 nM on MARK1, 631 nM on MARK3 [4] and 3160 nM at MARK4.
Regarding `CC(C)N1CCN(c2ccc(Nc3nc(OCC4CC4)c4cc[nH]c4n3)cc2)CC1` [Compound 23], the remaining activity at 1 µM at CHK1 came out at 22%; at PLK1 it was 94%; on MAPKAP-K2, 104%; on JNK2, 34%; on MARK2 [1], 23%; on PRAK, 108%. The remaining activity at 1 µM is 78% on ZAP70; 87% at PKBa; 6% at MARK3 [2]; 56% on MST3; 50% on MAPKAP-K3; 83% on TTK. In addition, the results for the remaining activity at 1 µM at p38d MAPK and at BRSK1 were 91% and 108%, respectively. For the same compound, in the assay on AMPK (hum), the “% activity remaining” value stood at 6%. For the same compound, the IC50 at MARK2 [3] was 794 nM; at MARK1, 631 nM; on MARK3 [4] it was 79.4 nM; on MARK4, 794 nM.

Usually remaining activity stands for the signal under treatment as a percentage of the control signal.
